# Source: US10118930B2, “Piperidinylpyrazolopyrimidinones and their use” (BAYER PHARMA AKTIENGESELLSCHAFT, priority 2015, dated 2018)
# pIC50: −log10 of the molar value. Counter-ions that a name gives are not always drawn.
# Test system: clot lysis (fibrinolysis) in diluted human citrated plasma, tPA-induced
# Test: Plasma-based clot lysis assay (5%)
# Assay type: biochemical
# Conditions: human citrated platelet-poor plasma 5%, fibrinogen 3 μM, CaCl2 10 mM, tPA 0.2 nM, 37° C., OD at 405 nm
# Outline: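 Clot formation and breakdown triggered by CaCl2 (10 mM final) plus tPA (0.2 nM final) at 37° C, in 5% diluted human plasma supplemented with 3 μM fibrinogen (HEPES/NaCl/Brij buffer, pH 7). IC50 obtained from time courses relative to a blank control.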
row,Compound,pIC50
1,"Cc1nn2c(C3CCNCC3)cc(=O)[nH]c2c1C(=O)OCCC(F)(F)F [Example 466, 3,3,3-trifluoropropyl 2-methyl-5-oxo-7-(piperidin-4-yl)-4,5-dihydropyrazolo[1,5-a]pyrimidine-3-carboxylate hydrochloride]",7.07
2,"Cc1nn2c(C3CCNCC3)cc(=O)[nH]c2c1-c1nc(-c2ccccc2F)no1 [Example 438, 3-[3-(2-fluorophenyl)-1,2,4-oxadiazol-5-yl]-2-methyl-7-(piperidin-4-yl)pyrazolo[1,5-a]pyrimidin-5(4H)-one hydrochloride]",7.92
3,"O=c1cc(C2CCNCC2)n2ncc(-c3ccc4c(c3)OCCO4)c2[nH]1 [Example 61, 3-(2,3-Dihydro-1,4-benzodioxin-6-yl)-7-(piperidin-4-yl)pyrazolo[1,5-a]pyrimidin-5 (4H)-one hydrochloride]",7.47
4,"O=c1cc(C2CCNCC2)n2ncc(-c3cccc(OC(F)(F)F)c3)c2[nH]1 [Example 70, 7-(Piperidin-4-yl)-3-[3-(trifluoromethoxy)phenyl]pyrazolo[1,5-a]pyrimidin-5(4H)-one hydrochloride]",7.85
5,"O=c1cc(C2CCNCC2)n2ncc(-c3nc(-c4cccnc4Cl)no3)c2[nH]1 [Example 148, 3-[3-(2-Chloropyridin-3-yl)-1,2,4-oxadiazol-5-yl]-7-(piperidin-4-yl)pyrazolo[1,5-a]pyrimidin-5(4H)-one hydrochloride]",7.37
6,"Cc1nc(-c2ccc(C(F)(F)F)cc2)sc1-c1cnn2c(C3CCNCC3)cc(=O)[nH]c12 [Example 369, 3-{4-methyl-2-[4-(trifluoromethyl)phenyl]-1,3-thiazol-5-yl}-7-(piperidin-4-yl)pyrazolo[1,5-a]pyrimidin-5(4H)-one hydrochloride]",7.41
7,"Cc1ccc(S(C)(=O)=NC(=O)c2cnn3c(C4CCNCC4)cc(=O)[nH]c23)cc1 (stereo not shown) [Example 36, N-[Methyl(4-methylphenyl)oxido-lambda^6-sulfanylidene]-5-oxo-7-(piperidin-4-yl)-4,5-dihydropyrazolo[1,5-a]pyrimidine-3-carboxamide hydrochloride]",7.55
8,"O=c1cc(C2CCNCC2)n2ncc(-c3noc(-c4cccc(Cl)c4)n3)c2[nH]1 [Example 226, 3-[5-(3-chlorophenyl)-1,2,4-oxadiazol-3-yl]-7-(piperidin-4-yl)pyrazolo[1,5-a]pyrimidin-5 (4H)-one hydrochloride]",7.46
9,"O=c1cc(C2CCNCC2)n2ncc(-c3nc(-c4cccc(OC(F)(F)F)c4)no3)c2[nH]1 [Example 124, 7-(Piperidin-4-yl)-3-{3-[3-(trifluoromethoxy)phenyl]-1,2,4-oxadiazol-5-yl}pyrazolo[1,5-a]pyrimidin-5(4H)-one hydrochloride]",7.42
10,"O=c1cc(C2CCNCC2)n2ncc(-c3cccc(Cl)c3)c2[nH]1 [Example 48, 3-(3-Chlorophenyl)-7-(piperidin-4-yl)pyrazolo[1,5-a]pyrimidin-5(4H)-one hydrochloride]",7.85
11,"O=C(Nc1cccc(Cl)c1F)c1cnn2c(C3CCNCC3)cc(=O)[nH]c12 [Example 87, N-(3-chloro-2-fluorophenyl)-5-oxo-7-(piperidin-4-yl)-4,5-dihydropyrazolo[1,5-a]pyrimidine-3-carboxamide hydrochloride]",7.52
12,"O=c1cc(C2CCNCC2)n2ncc(C3CC3)c2[nH]1 [Example 344, 3-cyclopropyl-7-(piperidin-4-yl)pyrazolo[1,5-a]pyrimidin-5(4H)-one hydrochloride]",6.92
13,"CC(C)N1CCC(c2noc(-c3cnn4c(C5CCNCC5)cc(=O)[nH]c34)n2)CC1 [Example 264, 7-(piperidin-4-yl)-3-{3-[1-(propan-2-yl)piperidin-4-yl]-1,2,4-oxadiazol-5-yl}pyrazolo[1,5-a]pyrimidin-5(4H)-one hydrochloride]",6.70
14,"Cc1ccccc1-c1noc(-c2cnn3c(C4CCNCC4)cc(=O)[nH]c23)n1 [Example 119, 3-[3-(2-Methylphenyl)-1,2,4-oxadiazol-5-yl]-7-(piperidin-4-yl)pyrazolo[1,5-a]pyrimidin-5 (4H)-one hydrochloride]",7.10
15,"CC(c1ccccc1)c1noc(-c2cnn3c(C4CCNCC4)cc(=O)[nH]c23)n1 (stereo not shown) [Example 215, 3-[3-(1-phenylethyl)-1,2,4-oxadiazol-5-yl]-7-(piperidin-4-yl)pyrazolo[1,5-a]pyrimidin-5(4H)-one hydrochloride]",7.47
16,"O=c1cc(C2CCNCC2)n2ncc(-c3nc(-c4cc(Cl)ccc4C(F)(F)F)no3)c2[nH]1 [Example 145, 3-{3-[5-Chloro-2-(trifluoromethyl)phenyl]-1,2,4-oxadiazol-5-yl}-7-(piperidin-4-yl)pyrazolo[1,5-a]pyrimidin-5(4H)-one hydrochloride]",7.55

row,Compound,pIC50
1,"Cc1nn2c(C3CCNCC3)cc(=O)[nH]c2c1C(=O)N(C)CC1CC1 [Example 425, N-(cyclopropyl-methyl)-N,2-dimethyl-5-oxo-7-(piperidin-4-yl)-4,5-dihydro-pyrazolo[1,5-a] pyrimidine-3-carboxamide hydrochloride]",7.43
2,"O=c1cc(C2CCNCC2)n2ncc(-c3nc(-c4ccccc4)no3)c2[nH]1 [Example 35, 3-(3-Phenyl-1,2,4-oxadiazol-5-yl)-7-(piperidin-4-yl)pyrazolo[1,5-a]pyrimidin-5(4H)-one hydrochloride]",7.82
3,"O=c1cc(C2CCNCC2)n2ncc(-c3nnc(CC(F)(F)F)o3)c2[nH]1 [Example 289, 7-(piperidin-4-yl)-3-[5-(2,2,2-trifluoroethyl)-1,3,4-oxadiazol-2-yl]pyrazolo[1,5-a]pyrimidin-5(4H)-one hydrochloride]",7.57
4,"O=c1cc(C2CCNCC2)n2ncc(-c3nc(-c4ccc(C(F)(F)F)nc4)no3)c2[nH]1 [Example 188, 7-(piperidin-4-yl)-3-{3-[6-(trifluoromethyl)pyridin-3-yl]-1,2,4-oxadiazol-5-yl}pyrazolo[1,5-a]pyrimidin-5(4H)-one hydrochloride]",7.46
5,"Cc1nn2c(C3CCNCC3)cc(=O)[nH]c2c1C(=O)N1CCCC(C(C)C)C1 (stereo not shown) [Example 408, 3-[(3-isopropyl-piperidin-1-yl)carbonyl]-2-methyl-7-(piperidin-4-yl) pyrazolo[1,5-a] pyrimidin-5(4H)-one hydrochloride]",7.47
6,"N#Cc1cnn2c(C3CCNCC3)cc(=O)[nH]c12 [Example 15, 5-Oxo-7-(piperidin-4-yl)-4,5-dihydropyrazolo[1,5-a]pyrimidine-3-carbonitrile]",7.72
7,"Cc1nn2c(C3CCNCC3)cc(=O)[nH]c2c1-c1ccc(Br)cc1 [Example 10, 3-(4-Bromophenyl)-2-methyl-7-(piperidin-4-yl)pyrazolo[1,5-a]pyrimidin-5(4H)-one hydrochloride]",6.96
8,"COCc1nnc(-c2cnn3c(C4CCNCC4)cc(=O)[nH]c23)o1 [Example 173, 3-[5-(methoxymethyl)-1,3,4-oxadiazol-2-yl]-7-(piperidin-4-yl)pyrazolo[1,5-a]pyrimidin-5(4H)-one hydrochloride]",7.47
9,"COc1ccc(Cc2nc(-c3cnn4c(C5CCNCC5)cc(=O)[nH]c34)no2)cn1 [Example 251, 3-{5-[(6-methoxypyridin-3-yl)methyl]-1,2,4-oxadiazol-3-yl}-7-(piperidin-4-yl)pyrazolo[1,5-a]pyrimidin-5(4H)-one hydrochloride]",7.51
10,"O=C(c1cnn2c(C3CCNCC3)cc(=O)[nH]c12)C1CCCC1 [Example 451, 3-(cyclopentylcarbonyl)-7-(piperidin-4-yl)pyrazolo[1,5-a]pyrimidin-5(4H)-one hydrochloride]",7.96
11,"O=c1cc(C2CCNCC2)n2ncc(-c3nc(-c4cccc(F)c4)no3)c2[nH]1 [Example 112, 3-[3-(3-Fluorophenyl)-1,2,4-oxadiazol-5-yl]-7-(piperidin-4-yl)pyrazolo[1,5-a]pyrimidin-5 (4H)-one hydrochloride]",7.54
12,"O=c1cc(C2CCNCC2)n2ncc(-c3nc(-c4ccc(OC(F)(F)F)c(Cl)c4)no3)c2[nH]1 [Example 149, 3-{3-[3-Chloro-4-(trifluoromethoxy)phenyl]-1,2,4-oxadiazol-5-yl}-7-(piperidin-4-yl)pyrazolo[1,5-a]pyrimidin-5(4H)-one hydrochloride]",7.00
13,"Cc1ccc(-c2noc(-c3cnn4c(C5CCNCC5)cc(=O)[nH]c34)n2)cc1 [Example 39, 3-[3-(4-Methylphenyl)-1,2,4-oxadiazol-5-yl]-7-(piperidin-4-yl)pyrazolo[1,5-a]pyrimidin-5 (4H)-hydrochloride]",7.57
14,"O=c1cc(C2CCNCC2)n2ncc(CN3CCS(=O)(=O)CC3)c2[nH]1 [Example 345, 3-[(1,1-dioxidothiomorpholin-4-yl)methyl]-7-(piperidin-4-yl)pyrazolo[1,5-a]pyrimidin-5 (4H)-one hydrochloride]",6.92
15,"O=c1cc(C2CCNCC2)n2nc(-c3cccs3)cc2[nH]1 [Example 25, 7-(Piperidin-4-yl)-2-(2-thienyl)pyrazolo[1,5-a]pyrimidin-5(4H)-one hydrochloride]",6.80
16,"CC(C)CCc1csc(-c2cnn3c(C4CCNCC4)cc(=O)[nH]c23)n1 [Example 304, 3-[4-(3-methylbutyl)-1,3-thiazol-2-yl]-7-(piperidin-4-yl)pyrazolo[1,5-a]pyrimidin-5 (4H)-one hydrochloride]",7.62

# Same assay, conditions: human citrated platelet-poor plasma 5%, fibrinogen 3 μM, CaCl2 10 mM, tPA 0.2 nM, 37° C., OD at 405 nm; acetate
row,Compound,pIC50
1,"Cc1ccccc1-c1csc(-c2cnn3c(C4CCNCC4)cc(=O)[nH]c23)n1 [Example 448, 3-[4-(2-methylphenyl)-1,3-thiazol-2-yl]-7-(piperidin-4-yl)pyrazolo[1,5-a]pyrimidin-5(4H)-one acetate]",7.52

# Same assay, conditions: human citrated platelet-poor plasma 5%, fibrinogen 3 μM, CaCl2 10 mM, tPA 0.2 nM, 37° C., OD at 405 nm; hydrochloride
row,Compound,pIC50
1,"CCc1noc(-c2cnn3c(C4CCNCC4)cc(=O)[nH]c23)n1 [Example 199, 3-(3-ethyl-1,2,4-oxadiazol-5-yl)-7-(piperidin-4-yl)pyrazolo[1,5-a]pyrimidin-5(4H)-one hydrochloride]",7.47
